Data reported in patent publication US20220354844A1, “METHODS OF TREATING METABOLIC DISEASES WITH FUSED BICYCLIC PYRAZOLES” (Belite Bio, Inc, priority 2017, published 2022).
Where “and” joins values, the source holds several entries; their conditions need not be identical. Identical values can stand only once. Like-named read-outs stand apart in the source and are kept apart here.

Columns and labels:
[1] = Compound 2 single dose rat PK study; format: in vivo, male Sprague Dawley rats; conditions: for Vd: read-out: Vss
Method: A pharmacokinetic study of Compound 2 following a single intravenous or oral dose administration to male Sprague Dawley rats was conducted, the results of which are found in Table 5 and FIGS. 21-24.

[2] = system: Subjects with NAFLD or NASH; test: Treatment of NAFLD and NASH in humans; format: in vivo, human; conditions: 50 or 100 mg/day for 6 months
Method: Subjects with NAFLD or NASH are treated with doses of either 50 or 100 mg/day of compound 1 or 2 for 6 months. Subjects are permitted their usual other medications (e.g. antidiabetic medications such as metformin or […]) but not glitazones, PPAR agonists, OCA, or similar medications. The subjects are assessed before the study, and at intervals during the study, such as every 4 weeks during the study and 4 weeks after the last dose of compound 1 or 2, for safety and pharmacodynamic evaluations.
MRIs of the subjects' livers are taken every 4 weeks during the study and 4 weeks after completion of compound 1 or 2 dosing, to determine hepatic fat; and liver biopsies are taken before the study (to establish the diagnosis) and 4 weeks after completion of compound 1 or 2 dosing. At each visit, after a 12-hour fast, blood is drawn and urine collected; and a standard metabolic panel, complete blood count, and standard urinalysis are performed. Blood is analyzed for total cholesterol, HDL-C, LDL-C, VLDL-C, TGs, apoB, and liver transaminases. The subjects also maintain health diaries, which are reviewed at each visit.

[3] = male, Sprague Dawley, plasma, iv, 2 mg/kg, single iv dose 2 mg/kg, Mean of the 3 rats
[4] = male, Sprague Dawley, plasma, iv, 2 mg/kg, single iv dose 2 mg/kg, individual rats
[5] = male, Sprague Dawley, plasma, po, 5 mg/kg, single po dose 5 mg/kg, Mean of the 3 rats
[6] = male, Sprague Dawley, plasma, po, 5 mg/kg, single po dose 5 mg/kg, individual rats
[7] = single iv dose 2 mg/kg, individual rats, 2 mg/kg
[8] = single po dose 5 mg/kg, individual rats, 5 mg/kg

Work on `CC(=O)N1Cc2[nH]nc(C(=O)N3CCC(c4ccc(F)c(F)c4C(F)(F)F)CC3)c2C1` [Compound 2, 1-(3-(4-(3,4-difluoro-2-(trifluoromethyl)phenyl)piperidine-1-carbonyl)-4,6-dihydropyrrolo[3,4-c]pyrazol-5(1H)-yl)ethan-1-one] yielded an AUC(0-inf) [1, 3] of 5750 ng·h/mL, an AUC(0-t) [1, 3] of 5720 ng·h/mL and an MRT inf [1, 3] of 2.3 h. For the same molecule, the MRT last [1, 3] was 2.2 h, the clearance [1, 3] was 3.17 mL/min/kg and the half-life [1, 3] was 6.6 h. The Tmax ([1]; male, Sprague Dawley, plasma, iv, 2 mg/kg, single iv dose 2 mg/kg, Mean of the 3 rats, first plasma collection time or observed time of highest plasma concentration) was 0.22 h, the Cmax ([1]; male, Sprague Dawley, plasma, iv, 2 mg/kg, single iv dose 2 mg/kg, Mean of the 3 rats, read-out: Cmax) was 2840 ng/mL and the Vd [1, 3] was 0.436 L/kg. The MRT inf [1, 4] was 2.1 h, the MRT last [1, 4] was 2 h and the half-life [1, 4] was 7.1 h. It also gave a Cmax ([1]; male, Sprague Dawley, plasma, iv, 2 mg/kg, single iv dose 2 mg/kg, individual rats, read-out: Cmax) of 2920 ng/mL, a Vd [1, 4] of 0.421 L/kg and an AUC(0-inf) [1, 5] of 6410 ng·h/mL. The AUC(0-t) [1, 5] was 6370 ng·h/mL, the MRT inf [1, 5] was 4.8 h and the MRT last [1, 5] was 4.5 h. It also gave a Tmax [1, 5] of 0.5 h, a half-life [1, 5] of 8 h and a Cmax ([1]; male, Sprague Dawley, plasma, po, 5 mg/kg, single po dose 5 mg/kg, Mean of the 3 rats, read-out: Cmax) of 1600 ng/mL. For the same molecule, the AUC(0-inf) [1, 6] was 5340 ng·h/mL, the AUC(0-t) [1, 6] was 5280 ng·h/mL and the MRT inf [1, 6] was 5 h. It also gave an MRT last [1, 6] of 4.5 h, a Tmax [1, 6] of 0.5 h and a half-life [1, 6] of 10.9 h. The Cmax ([1]; male, Sprague Dawley, plasma, po, 5 mg/kg, single po dose 5 mg/kg, individual rats, read-out: Cmax) was 1530 ng/mL, the AUCLAST [1, 7] was 5039 ng·h/mL and 8134 ng·h/mL and 3994 ng·h/mL and the Cl [1, 7] was 2.05 mL/min/kg. For the same molecule, the Cmax [1, 7] was 3275 ng/mL and 2320 ng/mL, the MRTinf [1, 7] was 2.6 h and 2.3 h and the MRTlast [1, 7] was 2.5 h and 2.1 h. For the same molecule, the Vss [1, 7] was 0.315 L/kg and 0.572 L/kg, the t1/2 [1, 7] was 7.0 h and 5.7 h and the F ([1]; single po dose 5 mg/kg, Mean of the 3 rats) was 44.6%. For the same molecule, the AUCLAST [1, 8] was 8392 ng·h/mL and 5435 ng·h/mL, the AUCinf [1, 8] was 8434 hr · ng/m1 and 5452 hr · ng/m1 and the Cmax [1, 8] was 2036 ng/mL and 1240 ng/mL. For the same molecule, the F [1, 8] was 37.2% and 58.7% and 38.0%, the MRTinf [1, 8] was 5.4 h and 4.1 h and the MRTlast [1, 8] was 5.1 h and 4.0 h. For the same molecule, the t1/2 [1, 8] was 7.7 h and 5.5 h and the “improvement in their disease, as manifested by MRI and liver biopsy” value [2] was “dose-related improvement”.
